Assays:
[1] = tested on: barnyardgrass; assay: Test A pre-/postemergence herbicide test; assay type: in vivo, Echinochloa crus-galli
Summary of the method: (§1)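 Visual injury ratings, 0 = no effect, 100 = complete control, taken ~10 days after treatment against untreated greenhouse controls. Preemergence: directed soil spray onto seeded loam/sand pots. Postemergence: spray onto plants at one- to two-leaf stage, 2–10 cm tall.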

[2] = tested on: kochia; assay: Test A pre-/postemergence herbicide test; assay type: in vivo, Kochia scoparia; details: for Plant response rating, Kochia: 0 to 100 scale
Summary of the method: as §1

[3] = tested on: ragweed; assay: Test A pre-/postemergence herbicide test; assay type: in vivo, Ambrosia elatior; details: for Plant response rating, Ragweed: 0 to 100 scale
Summary of the method: as §1

[4] = tested on: ryegrass, Italian; assay: Test A pre-/postemergence herbicide test; assay type: in vivo, Lolium multiflorum; details: for Plant response rating, Ryegrass, Italian: 0 to 100 scale
Summary of the method: as §1

[5] = tested on: giant foxtail; assay: Test A pre-/postemergence herbicide test; assay type: in vivo, Setaria faberii; details: for Plant response rating, Foxtail, Giant: 0 to 100 scale
Summary of the method: as §1

[6] = tested on: pigweed; assay: Test A pre-/postemergence herbicide test; assay type: in vivo, Amaranthus retroflexus; details: for Plant response rating, Pigweed: 0 to 100 scale
Summary of the method: as §1

[7] = tested on: wheat; assay: Test A pre-/postemergence herbicide test; assay type: in vivo, Triticum aestivum; details: Postemergence; for Plant response rating, Wheat: 125 g ai/ha, 0 to 100 scale; for Wheat plant response rating (0 to 100 scale, 0 is no effect, 100 is complete control): 500 g ai/ha
Summary of the method: as §1

[8] = tested on: corn; assay: Test A pre-/postemergence herbicide test; assay type: in vivo, Zea mays; details: Postemergence; for Plant response rating, Corn: 125 g ai/ha, 0 to 100 scale; for Corn plant response rating (0 to 100 scale, 0 is no effect, 100 is complete control): 500 g ai/ha
Summary of the method: as §1

[9] = tested on: blackgrass; assay: Test A postemergence herbicide test; assay type: in vivo, Alopecurus myosuroides; details: for Plant response rating, Blackgrass: 125 g ai/ha, 0 to 100 scale; for Blackgrass plant response rating (0 to 100 scale, 0 is no effect, 100 is complete control): 500 g ai/ha
Summary of the method: (§2)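 Young potted plants in a loam–sand mix, one- to two-leaf stage and 2–10 cm tall, receive the test chemical postemergence and stay in a greenhouse for approximately 10 days. Injury is then judged by eye against untreated plants, scored 0 (none) to 100 (complete control).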

[10] = tested on: galium; assay: Test A postemergence herbicide test; assay type: in vivo, Galium aparine; details: for Plant response rating, Galium: 125 g ai/ha, 0 to 100 scale; for Galium plant response rating (0 to 100 scale, 0 is no effect, 100 is complete control): 500 g ai/ha
Summary of the method: as §2

[11] = tested on: rice; assay: Test B flooded paddy test; assay type: in vivo, Oryza sativa; details: 500 g ai/ha, Flood; scale of 0 to 100 where 0 is no effect and 100 is complete control
Summary of the method: (§3)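 In-water application to pots flooded 3 cm deep, plants at 2-leaf stage. Held in greenhouse 13–15 days at constant flood depth. Scored 0–100 by eye against controls.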

[12] = tested on: sedge, umbrella; assay: Test B flooded paddy test; assay type: in vivo, Cyperus difformis; details: 500 g ai/ha, Flood; scale of 0 to 100 where 0 is no effect and 100 is complete control
Summary of the method: as §3

[13] = tested on: ducksalad; assay: Test B flooded paddy test; assay type: in vivo, Heteranthera limosa; details: 500 g ai/ha, Flood; scale of 0 to 100 where 0 is no effect and 100 is complete control
Summary of the method: as §3

[14] = tested on: barnyardgrass; assay: Test B flooded paddy test; assay type: in vivo, Echinochloa crus-galli; details: 500 g ai/ha, Flood; scale of 0 to 100 where 0 is no effect and 100 is complete control
Summary of the method: as §3

[15] = 125 g ai/ha, visual rating, 0 to 100 scale, 0 no effect, 100 complete control, approximately 10 days, preemergence
[16] = Postemergence, 125 g ai/ha, 0 to 100 scale, 0 is no effect, 100 is complete control
[17] = 125 g ai/ha, visual rating, 0 no effect, 100 complete control, approximately 10 days, preemergence
[18] = Postemergence, 125 g ai/ha, 0 is no effect, 100 is complete control
[19] = preemergence, 500 g ai/ha, 0 is no effect and 100 is complete control
[20] = 0 is no effect, 100 is complete control
[21] = preemergence, 500 g ai/ha, 0 to 100 scale (0 no effect, 100 complete control)
[22] = Postemergence, 125 g ai/ha, 0 no effect, 100 complete control
[23] = 0 no effect, 100 complete control

O=C1NCC(c2ccc(Cl)cc2)C1C(=O)Nc1cccc(Cl)c1Cl (stereo not drawn) [Compound 221]
60: Plant response rating, Foxtail, Giant [5, 17]
30: Foxtail, Giant plant response rating (0 to 100 scale, 0 is no effect, 100 is complete control) ([5]; Postemergence, 500 g ai/ha)
0: Plant response rating, Barnyardgrass [1, 15] | Plant response rating, Barnyardgrass [1, 16] | Barnyardgrass plant response rating (0 to 100 scale, 0 is no effect, 100 is complete control) ([1]; Postemergence, 500 g ai/ha) | Plant response rating, Barnyardgrass ([1]; preemergence, 500 g ai/ha, 0 to 100 scale, 0 is no effect and 100 is complete control) | Plant response rating, Kochia [2, 17] | Plant response rating, Kochia [2, 18] | Kochia plant response rating (0 to 100 scale, 0 is no effect, 100 is complete control) ([2]; Postemergence, 500 g ai/ha) | Plant response rating, Kochia [2, 19] | Plant response rating, Ragweed [3, 17] | Plant response rating, Ragweed [3, 18] | Ragweed plant response rating (0 to 100 scale, 0 is no effect, 100 is complete control) ([3]; Postemergence, 500 g ai/ha) | Plant response rating, Ragweed [3, 19] | Plant response rating, Ryegrass, Italian [4, 17] | Plant response rating, Ryegrass, Italian [4, 18] | Ryegrass, Italian plant response rating (0 to 100 scale, 0 is no effect, 100 is complete control) ([4]; Postemergence, 500 g ai/ha) | Plant response rating, Ryegrass, Italian [4, 19] | Plant response rating, Foxtail, Giant [5, 18] | Plant response rating, Pigweed [6, 17] | Plant response rating, Pigweed [6, 18] | Pigweed plant response rating (0 to 100 scale, 0 is no effect, 100 is complete control) ([6]; Postemergence, 500 g ai/ha) | Plant response rating, Pigweed [6, 19] | Plant response rating, Wheat [7, 20] | Wheat plant response rating (0 to 100 scale, 0 is no effect, 100 is complete control) [7] | Plant response rating, Corn [8, 20] | Corn plant response rating (0 to 100 scale, 0 is no effect, 100 is complete control) [8] | Plant response rating, Blackgrass [9, 20] | Blackgrass plant response rating (0 to 100 scale, 0 is no effect, 100 is complete control) [9] | Plant response rating, Galium [10, 20] | Galium plant response rating (0 to 100 scale, 0 is no effect, 100 is complete control) [10] | Plant response rating, Rice [11] | Plant response rating, Sedge, Umbrella [12] | Plant response rating, Ducksalad [13] | Plant response rating, Barnyardgrass [14]
80: Plant response rating, Foxtail, Giant [5, 19]

O=C1NCC(c2cccc(C3CC3)c2)C1C(=O)Nc1ccc(F)c(F)c1F (racemic) [Compound 168]
100: Plant response rating, Ducksalad [13]
60: Kochia plant response rating (0 to 100 scale, 0 is no effect, 100 is complete control) ([2]; Postemergence, 500 g ai/ha) | Plant response rating, Kochia [2, 19] | Blackgrass plant response rating (0 to 100 scale, 0 is no effect, 100 is complete control) [9] | Plant response rating, Galium [10, 20]
30: Plant response rating, Corn [8, 20]
0: Plant response rating, Ragweed [3, 17] | Plant response rating, Ragweed [3, 18] | Plant response rating, Ryegrass, Italian [4, 17] | Plant response rating, Pigweed [6, 18] | Plant response rating, Wheat [7, 20] | Plant response rating, Rice [11] | Plant response rating, Sedge, Umbrella [12]
50: Plant response rating, Ragweed [3, 19] | Ryegrass, Italian plant response rating (0 to 100 scale, 0 is no effect, 100 is complete control) ([4]; Postemergence, 500 g ai/ha) | Plant response rating, Pigweed [6, 19]
20: Ragweed plant response rating (0 to 100 scale, 0 is no effect, 100 is complete control) ([3]; Postemergence, 500 g ai/ha) | Plant response rating, Ryegrass, Italian [4, 18]
40: Plant response rating, Kochia [2, 17] | Plant response rating, Kochia [2, 18] | Plant response rating, Ryegrass, Italian [4, 19] | Plant response rating, Pigweed [6, 17] | Pigweed plant response rating (0 to 100 scale, 0 is no effect, 100 is complete control) ([6]; Postemergence, 500 g ai/ha) | Wheat plant response rating (0 to 100 scale, 0 is no effect, 100 is complete control) [7] | Plant response rating, Blackgrass [9, 20]
65: Plant response rating, Barnyardgrass [14]
70: Corn plant response rating (0 to 100 scale, 0 is no effect, 100 is complete control) [8] | Galium plant response rating (0 to 100 scale, 0 is no effect, 100 is complete control) [10]
90: Plant response rating, Barnyardgrass [1, 15] | Plant response rating, Barnyardgrass [1, 16] | Barnyardgrass plant response rating (0 to 100 scale, 0 is no effect, 100 is complete control) ([1]; Postemergence, 500 g ai/ha) | Plant response rating, Barnyardgrass [1, 21] | Plant response rating, Foxtail, Giant [5, 17] | Plant response rating, Foxtail, Giant [5, 18] | Foxtail, Giant plant response rating (0 to 100 scale, 0 is no effect, 100 is complete control) ([5]; Postemergence, 500 g ai/ha) | Plant response rating, Foxtail, Giant ([5]; preemergence, 500 g ai/ha)

Cc1ccc(C2CNC(=O)C2C(=O)Nc2ccccc2F)cc1 (racemic) [Compound 149]
20: Plant response rating, Ryegrass, Italian [4, 17] | Wheat plant response rating (0 to 100 scale, 0 is no effect, 100 is complete control) [7]
90: Plant response rating, Barnyardgrass [1, 15] | Plant response rating, Barnyardgrass [1, 21] | Plant response rating, Foxtail, Giant ([5]; preemergence, 500 g ai/ha)
40: Ragweed plant response rating (0 to 100 scale, 0 is no effect, 100 is complete control) ([3]; Postemergence, 500 g ai/ha) | Plant response rating, Foxtail, Giant [5, 22] | Blackgrass plant response rating (0 to 100 scale, 0 is no effect, 100 is complete control) [9]
0: Plant response rating, Pigweed [6, 17] | Plant response rating, Pigweed [6, 22] | Pigweed plant response rating (0 to 100 scale, 0 is no effect, 100 is complete control) ([6]; Postemergence, 500 g ai/ha) | Plant response rating, Pigweed ([6]; preemergence, 500 g ai/ha) | Plant response rating, Wheat [7, 23] | Plant response rating, Rice [11] | Plant response rating, Sedge, Umbrella [12]
10: Plant response rating, Kochia [2, 17] | Plant response rating, Ryegrass, Italian [4, 22] | Plant response rating, Corn [8, 23]
100: Plant response rating, Ducksalad [13]
60: Kochia plant response rating (0 to 100 scale, 0 is no effect, 100 is complete control) ([2]; Postemergence, 500 g ai/ha) | Plant response rating, Ragweed [3, 17] | Galium plant response rating (0 to 100 scale, 0 is no effect, 100 is complete control) [10]
80: Barnyardgrass plant response rating (0 to 100 scale, 0 is no effect, 100 is complete control) ([1]; Postemergence, 500 g ai/ha) | Plant response rating, Ragweed ([3]; preemergence, 500 g ai/ha)
50: Plant response rating, Kochia [2, 22] | Ryegrass, Italian plant response rating (0 to 100 scale, 0 is no effect, 100 is complete control) ([4]; Postemergence, 500 g ai/ha) | Plant response rating, Galium [10, 23]
70: Plant response rating, Barnyardgrass ([1]; Postemergence, 125 g ai/ha, 0 to 100 scale, 0 no effect, 100 complete control) | Plant response rating, Kochia ([2]; preemergence, 500 g ai/ha) | Plant response rating, Ryegrass, Italian ([4]; preemergence, 500 g ai/ha) | Plant response rating, Foxtail, Giant [5, 17] | Foxtail, Giant plant response rating (0 to 100 scale, 0 is no effect, 100 is complete control) ([5]; Postemergence, 500 g ai/ha) | Corn plant response rating (0 to 100 scale, 0 is no effect, 100 is complete control) [8] | Plant response rating, Barnyardgrass [14]
30: Plant response rating, Ragweed [3, 22] | Plant response rating, Blackgrass [9, 23]

Source: patent publication US10294202B2, “Pyrrolidinones as herbicides” (FMC Corporation, priority 2013, dated 2019)
